Reference: EP4663640A1 (Shanghai Institute of Materia Medica, Chinese Academy of …, priority 2023, dated 2024)
“And” between values parts separate entries of the source, which are not always exact repeats. Equal entries are not always repeated.

How the values were obtained:
mice = assay: Marble burial test (antianxiety); format: in vivo; details: for number of buried marbles: test with reduced dosage (Figure 5)
Procedure: The drug to be tested was dissolved in DMSO: Tween 80: distilled water at a ratio of 2:2:96 (v/v/v), and then administered to mice by gavage at a volume of 10 mL/kg. […] The blank control group was only given 10 mL/kg of the above solvent.
The mouse marble burial test is a behavioral assay used for the screening of antianxiety drugs. It exploits the natural digging behavior of mice in environments such as burrows or escape tunnels and is sensitive to small changes in behavior caused by genetic manipulation, disease, or drug treatment.
A 5cm thick sawdust litter was laid in a 33 cm×24 cm×28 cm carton, and 4×5 black marbles (4 cm apart) with a total of 20 black marbles of 14mm in diameter were neatly placed on the litter. The mouse was put into the carton facing the corner for 30 minutes. After 30 minutes, the mouse was carefully taken out and the number of marbles buried by the mouse was counted. If more than 2/3 of the marble was buried, it was considered a whole marble. First, a blank experiment was conducted. Before the experiment, the mouse was taken to the experimental environment to adapt. After 1 hour, the experiment began. After the experiment, the mouse was returned to the cage and the number of marbles buried by the mouse was counted. On the second day, the mouse was taken to the experimental environment to adapt for 1 hour before the drug was administered. After the drug administration, the marble burying experiment was conducted for […]. After the experiment, the mouse was carefully taken out and returned to the cage to prevent the mouse from escaping violently and affecting the experimental results. After counting, the black marbles were taken out and wiped with alcohol, and the litter was turned over again to remove the smell of the previous mouse to prevent it from affecting the experiment of the next mouse. The marbles were neatly placed for the experiment of the next mouse.

[1] = Liver microsome stability test, mouse; format: in vitro ADME; details: Mouse liver microsomes
Description: Calculation of Intrinsic Clearance: Clint = (1000 × slope)/(P); [formula]

[2] = Preliminary pharmacokinetic evaluation, plasma drug concentration after oral administration to mice; format: in vivo, ICR mice; details: male, ICR, mouse, oral 10 mg/kg, Mean ± SD, N = 3
Procedure: The test compound was prepared according to the following solvent: an aqueous solution of DMSO/Tween 80/0.5% (m/v) CMC-Na at a ratio of 2:2:96 (v/v/v), with a drug concentration of 1 mg/mL. Then, the test compound was gavaged to mice at a dosage of 10 mL/kg, with a dose of 10 mg/kg. Each compound was administered to 3 mice. At 1h and 4h after administration, about 50 µL of blood was collected from the orbital venous plexus of the mouse and placed in a centrifuge tube containing EDTA-K2 anticoagulant.

[3] = Tissue distribution in rats; format: in vivo, SD rats; details: 2 hours after oral administration of 10 mg/kg, brain, heart, liver, spleen, lung, kidney, colon, muscle versus plasma (Figure 2)
Procedure: (§1) Intravenous (IV) administration: the drug to be tested was dissolved in DMSO/Solutol/normal saline at a ratio of 5:5:90 (v/v/v), with a concentration of 0.2 mg/mL, and the administration volume was 5 mL/kg. Oral (PO) administration: the drug to be tested was dissolved in DMSO/Tween 80/0.5% CMC-Na solution at a ratio of 2:2:96 (v/v/v), with a concentration of 1 mg/mL, and the administration volume was 10 mL/kg.
Male SD rats weighing 180-280g, 3 rats in each group, fasted for 12h before the experiment, had free access to water, and ate uniformly 4 h after administration. In the IV group, the rat tail vein was administered with a dose of 1mg/kg, and blood was collected at 0.083, 0.25, 0.5, 1.0, 2.0, 4.0, 6.0, 8.0, 12 and 24 h after administration. PO group, administered by gavage at a dose of 10 mg/kg, blood was collected at 0.25, 0.5, 1.0, 2.0, 4.0, 6.0, 8.0, 12 and 24 h after administration. At the above time points, 0.2 mL of blood was collected from the jugular vein and placed in an anticoagulant tube containing EDTA-K2. […] The drug concentration in the samples was quantified using LC-MS/MS method. Relevant pharmacokinetic parameters Tmax, Cmax, AUC0-∞, t1/2, etc. were calculated using WinNonlin software.

[4] = Pharmacokinetics in rats (oral and intravenous); format: in vivo, SD rats
Procedure: as §1
Male SD rats weighing 180-280g, 3 rats in each group, fasted for 12h before the experiment, had free access to water, and ate uniformly 4 h after administration. In the IV group, the rat tail vein was administered with a dose of 1mg/kg, and blood was collected at 0.083, 0.25, 0.5, 1.0, 2.0, 4.0, 6.0, 8.0, 12 and 24 h after administration. PO group, administered by gavage at a dose of 10 mg/kg, blood was collected at 0.25, 0.5, 1.0, 2.0, 4.0, 6.0, 8.0, 12 and 24 h after administration. At the above time points, 0.2 mL of blood was collected from the jugular vein and placed in an anticoagulant tube containing EDTA-K2. After the whole blood was collected, it was temporarily stored in an ice water bath, centrifuged at 11000 rpm for 5 min within 30min, the plasma was separated, and then frozen in a -70 °C refrigerator for testing. Tissue distribution group, oral administration, dose of 10mg/kg, 2h after drug administration, rats were anesthetized, bled through the abdominal aorta, and immediately dissected to collect brain, heart, liver, spleen, lung, kidney, colon, muscle. Part of the whole blood was collected and operated in an ice bath. The whole blood was centrifuged at 11000 rpm for 5 min within 30 min, and plasma (about 200 µL) was separated. After the tissue and plasma were collected, they were stored below -60 °C for testing. After each tissue was accurately weighed, the homogenizing reagent acetonitrile-water (1:1, v/v) was added for homogenization, wherein the raion of tissue to homogenizing reagent was 1:4 (g:mL). After homogenization, the samples were sonicated for 10 min, and the supernatant was taken after centrifugation for detection. The drug concentration in the samples was quantified using LC-MS/MS method. Relevant pharmacokinetic parameters Tmax, Cmax, AUC0-∞, t1/2, etc. were calculated using WinNonlin software.

[5] = male, SD, rat, plasma, 1 mg/kg (IV)
[6] = male, SD, rat, plasma, 10 mg/kg (PO)

Cn1c(=O)n(CCCO)c(=O)c2c1nc(C1(F)CCC(F)(F)CC1)n2Cc1ccc(F)c(Cl)c1 [Example E68, 7-(3-chloro-4-fluorobenzyl)-1-(3-hydroxypropyl)-3-methyl-8-(1,4,4-trifluorocyclohexyl)-3,7-dihydro-1H-purine-2,6-dione]
number of buried marbles (mice; oral 0.03 mg/kg): can reduce
number of buried marbles (mice; oral 0.1 mg/kg, better than the same dose of HC-070): more obvious
number of marbles buried by mice (mice; oral 0.1-1 mg/kg, before versus after administration (Figure 3)): significantly reduced
Stability Evaluation [1]: Medium (30%<MF%<70%, medium metabolic stability)
MF % ([1]; metabolic bioavailability): 49.3%
half-life at 1 µM ([1]; pH 7.4, 1µM compound, read-out: Half-life T1/2): 46 min
concentration at 1 h ([2]; 1h): 2700 ± 54 ng/mL
concentration at 4 h ([2]; 4h): 1890 ± 213 ng/mL
concentration in each tissue [3]: significantly higher than that in plasma
t1/2 ([4]; 10 mg/kg (PO), 10 mg/kg): 4.88 ± 0.80 h
F ([4]; 10 mg/kg (PO), oral bioavailability, 10 mg/kg): 62.2% and 62.2 ± 15.9%
AUC(0-inf) [4, 5]: 1170 ± 406 ng·h/mL
Cmax [4, 5]: 772 ± 92 ng/mL
clearance [4, 5]: 15.4 ± 4.98 mL/min/kg
half-life [4, 5]: 226 ± 128 min
Vd ([4]; male, SD, rat, plasma, 1 mg/kg (IV), read-out: VSS): 2.94 ± 0.79 L/kg
AUC(0-inf) [4, 6]: 7220 ± 1850 ng·h/mL
Tmax [4, 6]: 30 min
half-life [4, 6]: 293 min
Cmax ([4]; male, rat, plasma, 10 mg/kg (PO), Mean±SD, N=3): 1600 ng/mL
